Results from patent publication US10525004B2, “Epithelial delivery” (BIOCOMPATIBLES UK LIMITED, priority 2008, dated 2020).

Assays:
[1] = cited from earlier work
[2] = tested on: H357; conditions: LDH assay; all concentrations; FIG. 8
[3] = tested on: intracellular P. gingivalis; experiment: Intracellular killing of P. gingivalis in H357 keratinocytes (invasion assay, colony count); format: cell-based; conditions: H357 cells infected at MOI 100; metronidazole 0.01-10 μg/ml with 2 mg/ml vesicles; FIG. 7
Description: The polymer was prepared as in Example 9a. The film was dissolved by adding 2 ml of sterilized PBS (pH2) until the solution was clear. The concentration of polymer was 10 mg/ml. This was then sterilized using a 0.2 μm filter. The pH of the solution was adjusted to 7.4 with sterilized 1M NaOH and the vesicles purified by gel filtration chromatography using sterilized sepharose agar 4B (Sigma, Poole, Dorset, UK). […] After that, 200 μl of the medium was collected for H357 viability test using the LDH assay. Moreover, keratinocytes in a different plate treated in an identical manner was tested for H357 viability using propidium iodide and Hoechst. […] Serial dilutions of the lysate were used to determine colony count. […] This was then sonicated for 30 minutes to improve encapsulation. The mixture was not separated by size-exchange chromatography, so the free metronidazole was in equilibrium with the encapsulated metronidazole. P. gingivalis (ATCC 33277) at MOI 100 was used to infect H357 cells for 90 min. […] Saponin was then used to release intracellular bacteria from H357 cells and the number of intracellular P. gingivalis measured by counting the colonies from serial dilutions.

| Compound | log P [1] | viability of H357 [2] | recovered intracellular P. gingivalis (killing of intracellular bacteria) [3] |
| --- | --- | --- | --- |
| Cc1ncc([N+](=O)[O-])n1CCO [metronidazole, Metronidazole] | negative |  |  |
| gentamycin |  | not significantly different | not able to kill the intracellular P. gingivalis |
